# Laboratory results: the supplement of paper PMC10949913
# What was measured:
# Settings in all cases: 48 h
# [1] = system: NCI-H295R; assay: AC50 viability; higher = less potent
# Method in brief: (§1)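 Three adrenocortical carcinoma cell lines in 1,536-well plates received 23 nL of each library compound at 11 concentrations and were read with CellTiter-Glo after 48 h, with 15 minutes at room temperature before measuring luminescence. Vehicle and empty-well controls served for per-plate normalisation. AC50 and area under the curve were extracted from fitted concentration-response curves, discarding all curve classes other than inhibitory or non-responding.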
# [2] = system: CU-ACC2; assay: area under concentration-response curve (viability) (AUC (a.u.)); higher = less active
# Method in brief: as §1
# [3] = system: NCI-H295R; assay: as above
# Method in brief: as §1
# [4] = system: CU-ACC1; assay: as above
# Method in brief: as §1
SMILES,AC50 viability [1] [µM],area under concentration-response curve [2],area under concentration-response curve [3],area under concentration-response curve [4]
C[C@]12CC[C@@H]3c4ccc(O)cc4CC[C@H]3[C@@H]1CC[C@@H]2O,11.8,478,471,437
CCCCN(CCCC)CCC(O)c1cc2c(Cl)cc(Cl)cc2c2cc(C(F)(F)F)ccc12.Cl (configuration not stated),23.5,615,548,538
O=C(O)c1ccc2c(c1)nc(Nc1cccc(Cl)c1)c1ccncc12,2.63,570,509,517
CN1c2ccccc2C(=O)N2CCc3c([nH]c4ccccc34)C21 (configuration not stated),2.63,633,512,506
C[C@H]1CCC/C=C/C2C[C@H](O)C[C@H]2[C@H](O)/C=C/C(=O)O1 (some centres not stated),0.263,389,346,390
C[C@H]1Oc2cc(cnc2N)-c2c(nn(C)c2C#N)CN(C)C(=O)c2ccc(F)cc21,23.5,557,505,529
COc1cc(OC)c(/C=C/[S+](=O)([O-])Cc2ccc(OC)c(NCC(=O)[O-])c2)c(OC)c1,0.059,479,386,464
CCCCc1ccc2[nH]c(NC(=O)OC)nc2c1,0.148,511,438,480
C[C@H](CN(C)C)Oc1nc(Nc2cc3cccc(Cl)c3cn2)cnc1C#N,14.8,585,456,491
NC(=O)Nc1cc(-c2ccc(CN3CCOCC3)cc2)sc1C(N)=O,6.61,597,519,540
C[N]1N=CC2=C1C=C(C(=C2)OC3=CC=C(NC(=O)\C4=C\C=C(\C)N(C4=O)C5=CC=C(F)C=C5)C=C3F)C6=C[NH]N=C6,7.42,626,539,508
Nc1nc2ccc(OC(F)(F)F)cc2s1,0.00372,431,503,493
C[C@@]1(C(=O)Nc2ccc(F)nc2)CCCN1c1nc(Nc2cc(C3CC3)[nH]n2)c2cccn2n1,0.148,480,375,505
CN1CCN(CC1)C2=CC3=C([NH]C(=N3)C/4=C(\N)C5=C(F)C=CC=C5NC4=O)C=C2,20.9,574,479,485
CCN1CCN(CC1)CC(=O)NC2=CC=C(C3=C2C4=C(S3)C=CC=C4)C5=C6O\C(=C/C(=O)C6=CC=C5)N7CCOCC7,2.57,610,494,555
Nc1nccc(-c2ccc3noc(-c4ccc(Cl)cc4)c3c2)n1,0.263,345,354,344
COc1cc([C@@H]2c3cc4c(cc3[C@H](O)[C@H]3COC(=O)[C@H]23)OCO4)cc(OC)c1OC,0.0209,464,359,452
CCN(CC)CCNC(=O)c1c(C)[nH]c(/C=C2\C(=O)Nc3ccc(F)cc32)c1C,9.34,529,456,528
O=C(Nc1cccc(C(F)(F)F)c1)Nc1cc([S+](=O)([O-])NC2CC2)ccc1-c1ccsc1,23.5,568,514,525
COC(=O)c1ccc([C@H]2c3[nH]c4ccccc4c3C[C@H](C(=O)OC)N2C(=O)CCl)cc1,0.263,360,356,385
COc1ccc(-c2oc3ncnc(N)c3c2-c2ccc(NC(=O)Nc3cc(C(F)(F)F)ccc3F)cc2)cc1,13.2,518,471,469
C=CCc1cccc(/C=N/NC(=O)CN2CCN(Cc3ccccc3)CC2)c1O,26.3,650,587,523
COc1ccc2c(c1OC)C(=O)O[C@H]2[C@H]1c2c(cc3c(c2OC)OCO3)CCN1C,20.9,608,519,493
CC(C)n1ncnc1-c1cn2c(n1)-c1ccc(O[C@@H](C)C(N)=O)cc1OCC2,1.05,582,491,364
COc1ncc(-c2ccc3nccc(-c4ccnnc4)c3c2)cc1N[S+](=O)([O-])c1ccc(F)cc1F,0.059,441,362,362
CC/C(=C(/CC)c1ccc(O)cc1)c1ccc(O)cc1,18.6,585,517,516
COc1ccc(OC)c(-c2nnc3ccc(-c4ccc(OC)c(O[C@@H]5CCOC5)c4)nn23)c1,5.9,624,541,482
CC(C)NC(=O)[C@H]1CC[C@@H](n2c(NC(=O)c3ccc(F)cc3)nc3ccc(CN4CCC(C(C)(C)O)CC4)cc32)CC1,9.11,626,612,465
